Entries after “also recorded” stand apart in the source; their conditions may differ. Like-named read-outs stand apart in the source and are kept apart here.
Columns and labels:
Format in all cases: cell-based
C. albicans = assay: In vitro inhibition of growth of C. albicans
Description: Mogroside II, III, IV, V, VI, 11-o-Mogroside V, and Siamenoside I were also evaluated in vitro for inhibition of growth of C. albicans.

A. actinomycetemcomitans = assay: Inhibition of growth of oral bacteria, A. actinomycetemcomitans; conditions: 500 μM
Description: (§1) The concentration of 500 μM of mogroside II, III, IV, V, VI, 11-o-Mogroside V, and Siamenoside I, siraitiflavandiol, rhamnocitrin-3-O-rhamnoside, and kaempferitrin were used to test the inhibition activity against the growth of oral bacteria, A. actinomycetemcomitans and P. gingivalis.

P. gingivalis = assay: Inhibition of growth of oral bacteria, P. gingivalis
Description: as §1

Row | Molecule | antimicrobial activity against C. albicans (growth inhibition) (C. albicans; in vitro) | antimicrobial activity against A. actinomycetemcomitans (growth inhibition) (A. actinomycetemcomitans) | antimicrobial activity against P. gingivalis (growth inhibition) (P. gingivalis; 500 μM) | antimicrobial activity against C. albicans (growth inhibition) (C. albicans) | antimicrobial activity against P. gingivalis (growth inhibition) (P. gingivalis)
1 | C[C@H](CC[C@@H](O[C@@H]1O[C@H](CO[C@@H]2O[C@H](CO)[C@@H](O)[C@H](O)[C@H]2O)[C@@H](O)[C@H](O)[C@H]1O[C@@H]1O[C@H](CO)[C@@H](O)[C@H](O)[C@H]1O)C(C)(C)O)[C@H]1CC[C@@]2(C)[C@@H]3CC=C4[C@@H](CC[C@H](O[C@@H]5O[C@H](CO[C@@H]6O[C@H](CO)[C@@H](O)[C@H](O)[C@H]6O)[C@@H](O)[C@H](O)[C@H]5O)C4(C)C)[C@]3(C)C(=O)C[C@]12C [11-o-Mogroside V] | higher antimicrobial activity than mogroside VI and Siamenoside I | higher antimicrobial activity than mogroside II and III | higher antimicrobial activity than mogroside III |  | 
2 | C[C@H](CC[C@@H](O[C@@H]1O[C@H](CO[C@@H]2O[C@H](CO)[C@@H](O)[C@H](O)[C@H]2O)[C@@H](O)[C@H](O)[C@H]1O[C@@H]1O[C@H](CO)[C@@H](O)[C@H](O)[C@H]1O)C(C)(C)O)[C@H]1CC[C@@]2(C)[C@@H]3CC=C4[C@@H](CC[C@H](O[C@@H]5O[C@H](CO)[C@@H](O)[C@H](O)[C@H]5O)C4(C)C)[C@]3(C)[C@H](O)C[C@]12C [Siamenoside I] | mogroside II, III, IV, V, and 11-o-Mogroside V showed higher antimicrobial activity than mogroside VI and Siamenoside I |  |  |  | 
3 | C[C@@H]1O[C@@H](Oc2cc(O)c3c(=O)c(O[C@@H]4O[C@@H](C)[C@H](O)[C@@H](O)[C@H]4O)c(-c4ccc(O)cc4)oc3c2)[C@H](O)[C@H](O)[C@H]1O [kaempferitrin] | good activity |  | highest activity |  | 
4 | C[C@H](CC[C@@H](O[C@@H]1O[C@H](CO[C@@H]2O[C@H](CO)[C@@H](O)[C@H](O)[C@H]2O)[C@@H](O)[C@H](O)[C@H]1O)C(C)(C)O)[C@H]1CC[C@@]2(C)[C@@H]3CC=C4[C@@H](CC[C@H](O[C@@H]5O[C@H](CO)[C@@H](O)[C@H](O)[C@H]5O)C4(C)C)[C@]3(C)[C@H](O)C[C@]12C [mogroside III] | higher antimicrobial activity than mogroside VI and Siamenoside I | mogroside IV, V, VI, 11-o-Mogroside V showed higher antimicrobial activity than mogroside II and III | mogroside II, IV, V, VI, 11-o-Mogroside V showed higher antimicrobial activity than mogroside III |  | 
5 | C[C@H](CC[C@@H](O[C@@H]1O[C@H](CO)[C@@H](O)[C@H](O)[C@H]1O[C@@H]1O[C@H](CO)[C@@H](O)[C@H](O)[C@H]1O)C(C)(C)O)[C@H]1CC[C@@]2(C)[C@H]3CC=C4[C@@H](CC[C@H](O[C@@H]5O[C@H](CO[C@@H]6O[C@H](CO)[C@@H](O)[C@H](O)[C@H]6O)[C@@H](O)[C@H](O)[C@H]5O)C4(C)C)[C@]3(C)[C@H](O)C[C@]12C [mogroside IV] | higher antimicrobial activity than mogroside VI and Siamenoside I | higher antimicrobial activity than mogroside II and III | higher antimicrobial activity than mogroside III |  | 
6 | C[C@H](CC[C@@H](O[C@@H]1O[C@H](CO[C@@H]2O[C@H](CO)[C@@H](O)[C@H](O)[C@H]2O)[C@@H](O)[C@H](O)[C@H]1O[C@@H]1O[C@H](CO)[C@@H](O)[C@H](O)[C@H]1O)C(C)(C)O)[C@H]1CC[C@@]2(C)[C@@H]3CC=C4[C@@H](CC[C@H](O[C@@H]5O[C@H](CO[C@@H]6O[C@H](CO)[C@@H](O)[C@H](O)[C@H]6O)[C@@H](O)[C@H](O)[C@H]5O)C4(C)C)[C@]3(C)[C@H](O)C[C@]12C [mogroside V, Mogroside V] | higher antimicrobial activity than mogroside VI and Siamenoside I | higher antimicrobial activity than mogroside II and III; also recorded: highest activity | higher antimicrobial activity than mogroside III |  | 
7 | C[C@H](CC[C@@H](O[C@@H]1O[C@H](CO[C@@H]2O[C@H](CO)[C@@H](O)[C@H](O)[C@H]2O)[C@@H](O)[C@H](O)[C@H]1O[C@@H]1O[C@H](CO)[C@@H](O)[C@H](O)[C@H]1O)C(C)(C)O)[C@H]1CC[C@@]2(C)[C@H]3CC=C4[C@H](CC[C@H](O[C@@H]5O[C@H](CO[C@@H]6O[C@H](CO)[C@@H](O)[C@H](O)[C@H]6O)[C@@H](O)[C@H](O)[C@H]5O[C@@H]5O[C@H](CO)[C@@H](O)[C@H](O)[C@H]5O)C4(C)C)[C@]3(C)[C@H](O)C[C@]12C [mogroside VI] | mogroside II, III, IV, V, and 11-o-Mogroside V showed higher antimicrobial activity than mogroside VI and Siamenoside I | higher antimicrobial activity than mogroside II and III | higher antimicrobial activity than mogroside III |  | 
8 | mogroside II | higher antimicrobial activity than mogroside VI and Siamenoside I | mogroside IV, V, VI, 11-o-Mogroside V showed higher antimicrobial activity than mogroside II and III | higher antimicrobial activity than mogroside III |  | 
9 | rhamnocitrin-3-O-rhamnoside |  |  |  | good activity | highest activity
10 | siraitiflavandiol | good activity |  | highest activity |  | 

From US20120141386A1, “Application of Antimicrobial and Glycemic Control Activities of Lo Han Kuo Fruit (Siraitia grosvenorii)” (ORACEUTICALS, INC., priority 2010, published 2012)
